In ChEMBL document CHEMBL4152339, “Design and synthesis of novel 1H-tetrazol-5-amine based potent antimicrobial agents: DNA topoisomerase IV and gyrase affinity evaluation supported by molecular docking studies” (Eur J Med Chem, 2018):
Values after ≈ are worked out from the molar mass of the structure shown.

Columns and labels:
Pseudomonas aeruginosa [1] = test: Antibacterial activity against Pseudomonas aeruginosa ATCC 15442 after 18 hrs by CLSI disc diffusion method; assay type: functional; conditions: ATCC 15442, 18 h
[2] = test system: Staphylococcus epidermidis; test: Antibacterial activity against Staphylococcus epidermidis ATCC 35984 after 18 hrs by CLSI […] method; assay type: functional; conditions: ATCC 35984, 18 h
Proteus vulgaris = test: Antibacterial activity against Proteus vulgaris NCTC 4635 after 18 hrs by CLSI disc diffusion method; assay type: functional; conditions: NCTC 4635, 18 h
Micrococcus luteus [3] = test: Antibacterial activity against Micrococcus luteus ATCC 10240 after 18 hrs by CLSI disc diffusion method; assay type: functional; conditions: ATCC 10240, 18 h
Staphylococcus aureus [4] = test: Antibacterial activity against Staphylococcus aureus NCTC 4163 after 18 hrs by CLSI disc diffusion method; assay type: functional; conditions: NCTC 4163, 18 h
Escherichia coli = test: Antibacterial activity against Escherichia coli ATCC 10538 after 18 hrs by CLSI disc diffusion method; assay type: functional; conditions: ATCC 10538, 18 h
Micrococcus luteus [5] = test: Antibacterial activity against Micrococcus luteus ATCC 9341 after 18 hrs by CLSI disc diffusion method; assay type: functional; conditions: ATCC 9341, 18 h
Pseudomonas aeruginosa [6] = test: Antibacterial activity against Pseudomonas aeruginosa ATCC 27853 after 18 hrs by CLSI disc diffusion method; assay type: functional; conditions: ATCC 27853, 18 h
Staphylococcus aureus [7] = test: Antibacterial activity against Staphylococcus aureus ATCC 25923 after 18 hrs by CLSI disc diffusion method; assay type: functional; conditions: ATCC 25923, 18 h
Bacillus cereus = test: Antibacterial activity against Bacillus cereus ATCC 11778 after 18 hrs by CLSI disc diffusion method; assay type: functional; conditions: ATCC 11778, 18 h
Staphylococcus aureus [8] = test: Antibacterial activity against Staphylococcus aureus ATCC 6538 after 18 hrs by CLSI disc diffusion method; assay type: functional; conditions: ATCC 6538, 18 h
Bacillus spizizenii = test: Antibacterial activity against Bacillus subtilis ATCC 6633 after 18 hrs by CLSI disc diffusion method; assay type: functional; conditions: ATCC 6633, 18 h
[9] = test system: Staphylococcus epidermidis; test: Antibacterial activity against Staphylococcus epidermidis ATCC 12228 after 18 hrs by CLSI disc diffusion method; assay type: functional; conditions: ATCC 12228, 18 h
Enterococcus hirae = test: Antibacterial activity against Enterococcus hirae ATCC 10541 after 18 hrs by CLSI disc diffusion method; assay type: functional; conditions: ATCC 10541, 18 h
[10] = test system: Bordetella bronchiseptica; test: Antibacterial activity against Bordetella bronchiseptica ATCC 4617 after 18 hrs by CLSI disc diffusion method; assay type: functional; conditions: ATCC 4617, 18 h
Enterococcus faecalis = test: Antibacterial activity against Enterococcus faecalis ATCC 29212 after 18 hrs by CLSI disc diffusion method; assay type: functional; conditions: ATCC 29212, 18 h
[11] = Selectivity index, ratio of IC50 for human HaCaT cells to MIC for Bacillus subtilis ATCC 6633; assay type: toxicity; conditions: read-out: Selectivity Index
[12] = Selectivity index, ratio of IC50 for human HaCaT cells to MIC for Bordetella bronchiseptica ATCC 4617; assay type: toxicity; conditions: read-out: Selectivity Index
HaCaT = test: Cytotoxicity activity against human HaCaT cells assessed as reduction in cell viability after 72 hrs by MTT assay; assay type: cell-based
[13] = Selectivity index, ratio of IC50 for human HaCaT cells to MIC for Proteus vulgaris NCTC 4635; assay type: toxicity; conditions: read-out: Selectivity Index
A549 = test: Cytotoxicity activity against human A549 cells assessed as reduction in cell viability after 72 hrs by MTT assay; assay type: cell-based; conditions: A549, 72 h
[14] = Selectivity index, ratio of IC50 for human HaCaT cells to MIC for Micrococcus luteus ATCC 10240; assay type: toxicity; conditions: read-out: Selectivity Index
[15] = Selectivity index, ratio of IC50 for human HaCaT cells to MIC for Staphylococcus aureus NCTC 4163; assay type: toxicity; conditions: read-out: Selectivity Index
[16] = Selectivity index, ratio of IC50 for human HaCaT cells to MIC for Enterococcus hirae ATCC 10541; assay type: toxicity; conditions: read-out: Selectivity Index
[17] = Selectivity index, ratio of IC50 for human HaCaT cells to MIC for Escherichia coli ATCC 10538; assay type: toxicity; conditions: read-out: Selectivity Index

Compound	MIC (Pseudomonas aeruginosa [1]) [µM]	MIC [2] [µM]	MIC (Proteus vulgaris) [µM]	MIC (Micrococcus luteus [3]) [µM]	MIC (Staphylococcus aureus [4]) [µM]	MIC (Escherichia coli) [µM]	MIC (Micrococcus luteus [5]) [µM]	MIC (Pseudomonas aeruginosa [6]) [µM]	MIC (Staphylococcus aureus [7]) [µM]	MIC (Bacillus cereus) [µM]	MIC (Staphylococcus aureus [8]) [µM]	MIC (Bacillus spizizenii) [µM]	MIC [9] [µM]	MIC (Enterococcus hirae) [µM]	MIC [10] [µM]	MIC (Enterococcus faecalis) [µM]	IC50 (HaCaT) [µM]	IC50 (A549) [µM]	other results
CCn1nnnc1NCCc1c[nH]c2ccccc12	999 (≈ 256 µg/mL)	999 (≈ 256 µg/mL)	999 (≈ 256 µg/mL)	999 (≈ 256 µg/mL)	> 999	999 (≈ 256 µg/mL)	999 (≈ 256 µg/mL)	999 (≈ 256 µg/mL)	> 999	999 (≈ 256 µg/mL)	> 999	999 (≈ 256 µg/mL)	999 (≈ 256 µg/mL)	999 (≈ 256 µg/mL)	999 (≈ 256 µg/mL)	999 (≈ 256 µg/mL)			
Fc1ccc(-n2nnnc2NCCc2c[nH]c3ccccc23)cc1	397 (≈ 128 µg/mL)	12 (≈ 3.87 µg/mL)	12 (≈ 3.87 µg/mL)	12 (≈ 3.87 µg/mL)	50 (≈ 16.1 µg/mL)	25 (≈ 8.06 µg/mL)	12 (≈ 3.87 µg/mL)	397 (≈ 128 µg/mL)	12 (≈ 3.87 µg/mL)	6 (≈ 1.93 µg/mL)	25 (≈ 8.06 µg/mL)	12 (≈ 3.87 µg/mL)	50 (≈ 16.1 µg/mL)	25 (≈ 8.06 µg/mL)	12 (≈ 3.87 µg/mL)	50 (≈ 16.1 µg/mL)			
O=[N+]([O-])c1cc(-n2nnnc2Nc2nc[nH]n2)ccc1Cl	834 (≈ 257 µg/mL)	52 (≈ 16 µg/mL)	208 (≈ 64 µg/mL)	52 (≈ 16 µg/mL)	208 (≈ 64 µg/mL)	417 (≈ 128 µg/mL)	52 (≈ 16 µg/mL)	834 (≈ 257 µg/mL)	208 (≈ 64 µg/mL)	26 (≈ 8 µg/mL)	208 (≈ 64 µg/mL)	52 (≈ 16 µg/mL)	104 (≈ 32 µg/mL)	208 (≈ 64 µg/mL)	417 (≈ 128 µg/mL)	208 (≈ 64 µg/mL)			
O=C(O)n1nnnc1NCCc1c[nH]c2ccccc12	471 (≈ 128 µg/mL)	15 (≈ 4.08 µg/mL)	15 (≈ 4.08 µg/mL)	15 (≈ 4.08 µg/mL)	59 (≈ 16.1 µg/mL)	29 (≈ 7.9 µg/mL)	15 (≈ 4.08 µg/mL)	471 (≈ 128 µg/mL)	15 (≈ 4.08 µg/mL)	7 (≈ 1.91 µg/mL)	15 (≈ 4.08 µg/mL)	15 (≈ 4.08 µg/mL)	29 (≈ 7.9 µg/mL)	29 (≈ 7.9 µg/mL)	29 (≈ 7.9 µg/mL)	59 (≈ 16.1 µg/mL)			
FC(F)(F)c1ccc(-n2nnnc2Nc2nccs2)cc1	411 (≈ 128 µg/mL)	6 (≈ 1.87 µg/mL)	411 (≈ 128 µg/mL)	51 (≈ 15.9 µg/mL)	51 (≈ 15.9 µg/mL)	411 (≈ 128 µg/mL)	6 (≈ 1.87 µg/mL)	411 (≈ 128 µg/mL)	26 (≈ 8.12 µg/mL)	26 (≈ 8.12 µg/mL)	51 (≈ 15.9 µg/mL)	26 (≈ 8.12 µg/mL)	13 (≈ 4.06 µg/mL)	51 (≈ 15.9 µg/mL)	205 (≈ 64 µg/mL)	51 (≈ 15.9 µg/mL)	80	76	selectivity ratio [11]: 3.07; selectivity ratio [12]: 0.39; selectivity ratio [13]: 0.19; selectivity ratio [14]: 1.56; selectivity ratio [15]: 1.56; selectivity ratio [16]: 1.56; selectivity ratio [17]: 0.19
COc1cccc2c1C(=O)c1c(O)c3c(c(O)c1C2=O)C[C@@](O)(C(=O)CO)C[C@@H]3O[C@H]1C[C@H](N)[C@H](O)[C@H](C)O1 [DOXORUBICIN]																	1.09	0.63	

The next lines start with results.

MIC (Pseudomonas aeruginosa [1]) [µM]	MIC [2] [µM]	MIC (Proteus vulgaris) [µM]	MIC (Micrococcus luteus [3]) [µM]	MIC (Staphylococcus aureus [4]) [µM]	MIC (Escherichia coli) [µM]	MIC (Micrococcus luteus [5]) [µM]	MIC (Pseudomonas aeruginosa [6]) [µM]	MIC (Staphylococcus aureus [7]) [µM]	MIC (Bacillus cereus) [µM]	MIC (Staphylococcus aureus [8]) [µM]	MIC (Bacillus spizizenii) [µM]	MIC [9] [µM]	MIC (Enterococcus hirae) [µM]	MIC [10] [µM]	MIC (Enterococcus faecalis) [µM]	Compound	IC50 (HaCaT) [µM]	IC50 (A549) [µM]	other results
821 (≈ 257 µg/mL)	26 (≈ 8.14 µg/mL)	821 (≈ 257 µg/mL)	51 (≈ 16 µg/mL)	103 (≈ 32.3 µg/mL)	821 (≈ 257 µg/mL)	26 (≈ 8.14 µg/mL)	821 (≈ 257 µg/mL)	51 (≈ 16 µg/mL)	26 (≈ 8.14 µg/mL)	51 (≈ 16 µg/mL)	6 (≈ 1.88 µg/mL)	51 (≈ 16 µg/mL)	205 (≈ 64.2 µg/mL)	410 (≈ 128 µg/mL)	103 (≈ 32.3 µg/mL)	Clc1ccc(-n2nnnc2Nc2nccs2)cc1Cl			
> 865	14 (≈ 4.15 µg/mL)	> 865	27 (≈ 8.01 µg/mL)	108 (≈ 32 µg/mL)	> 865	14 (≈ 4.15 µg/mL)	> 865	108 (≈ 32 µg/mL)	14 (≈ 4.15 µg/mL)	108 (≈ 32 µg/mL)	14 (≈ 4.15 µg/mL)	27 (≈ 8.01 µg/mL)	27 (≈ 8.01 µg/mL)	> 865	54 (≈ 16 µg/mL)	Fc1ccc(-n2nnnc2Nc2nccs2)cc1Cl	60	60	selectivity ratio [11]: 4.28; selectivity ratio [12]: 0.07; selectivity ratio [13]: 0.07; selectivity ratio [14]: 2.22; selectivity ratio [15]: 0.55; selectivity ratio [16]: 2.22; selectivity ratio [17]: 0.07
